Measurements reported in US20160115540A1, “PRODRUGS AND DRUGS” (Biogen MA Inc., priority 2013, published 2016).
Counter-ions that a name gives are not always drawn.

Tested on: brain
Test: Transcriptional profiling, chronic dosing, EAE mice: brain
Assay type: in vivo
Description: EAE induction is generally performed by immunization with brain extracts, CNS proteins (such as myelin basic protein), or peptides from such protein emulsified in an adjuvant such as complete Freund's adjuvant, e.g., as described in Linker et al., Brain. 2011 March 134(Pt3): 678-92. […] FIG. 17 depicts exemplary immunophenotyping panels used to analyze various immune cell populations (e.g., T cells, T regulatory cells, NK cells, B cells, myeloid cells). […] The number of independent mice whose tissues were harvested for transcript profiling studies and whose data passed QC is shown in TABLE 15. Animals were exposed to CO2 and whole blood collected via cardiac puncture. Two 100 μl aliquots of whole blood were collected in 1.5 mL microcentrifuge tubes and snap frozen in liquid nitrogen. Peripheral (liver, spleen, kidney and jejunum) and CNS brain (cerebellum, hippocampus, striatum and cortex) tissues were harvested and snap frozen in liquid nitrogen, with special care taken to collect tissues of similar size and from the same location. All samples were stored at -80° C. until RNA extraction was conducted. For RNA preparation, frozen tissues were placed in 2 mL RNAse-free 96-well blocks with 1.5 mL QIAzol Lysis Reagent (QIAgen) and a 3.2 mm stainless steel bead (BioSpec Products, Bartlesville, Okla.). Tissues were disrupted for four cycles of 45 seconds in a Mini-Beadbeater (Biospec Products). RNA was extracted in chloroform and the aqueous phase was mixed with an equal volume of 70% ethanol. Extracted RNA was applied to RNeasy 96 plates and purified by the spin method according to the manufacturer's protocol (RNeasy 96 Universal Tissue Protocol, QIAgen, Hilden Germany). […] Washing and staining of the hybridized arrays were completed as described in the GeneChip Expression analysis technical manual for HT plate arrays using the Genechip® Array Station (Affymetrix, Santa Clara, Calif.) with modifications as described in […] et al. The processed GeneChip® plate arrays were scanned using GeneTitan scanner (Affymetrix, Santa Clara, Calif.). Affymetrix scans were subject to quality control (QC) measures. These tests included a visual inspection of the distribution of raw signal intensities and an assessment of RNA degradation, relative log expression (RLE), and normalized unscaled standard error (NUSE). All sample scans that passed these QC metrics were included in the analysis. All CEL files were subjected to GC-content-based Robust Multi-array Average (GCRMA) normalization (version 2.20.0) (Irizarry R A, et al. Nucleic Acids Res 2003; 31:e15; Li C, et al. Genome Biol 2001; 2:[…]0032). […] Stat Appl Genet Mol Biol 2004; 3:Article3). […] Springer Science+Business Media 2005). Changes in gene expression were studied by applying a linear modeling approach to fit gene expression levels according to the defined groups of samples (e.g. DMF-, MMF-, and Vehicle-treated animals) and Bayesian posterior error analysis as implemented by Smyth (Smyth G K. Stat Appl Genet Mol Biol 2004; 3:Article3). The comparisons considered included: DMF-vs-MMF, DMF-vs-Vehicle, MMF-vs-Vehicle, and Vehicle-vs-Naïve.

SMILES | Number of differentially expressed genes identified: Brain (100 mpk DMF-vs-90 mpk MMF, 7 h after last dosing) | Number of differentially expressed genes identified: Brain (100 mpk DMF-vs-90 mpk MMF, 12 h after last dosing) | Number of differentially expressed genes identified: Brain (100 mpk DMF-vs-Vehicle, 7 h after last dosing) | Number of differentially expressed genes identified: Brain (100 mpk DMF-vs-Vehicle, 12 h after last dosing) | Number of differentially expressed genes identified: Brain (90 mpk MMF-vs-Vehicle, 7 h after last dosing) | Number of differentially expressed genes identified: Brain (90 mpk MMF-vs-Vehicle, 12 h after last dosing)
COC(=O)/C=C/C(=O)OC [DMF, dimethyl fumarate] | 31 | 0 | 6 | 0 |  | 
COC(=O)/C=C/C(=O)O [MMF, monomethyl fumarate] |  |  |  |  | 158 | 0
